Experimental data from paper PMC12390925, “Metabolomics analysis of SNAT2-deficient cells: Implications for the discovery of selective small-molecule inhibitors of an amino acid transporter” (The Journal of Biological Chemistry, 2025).

Legend:
[1] = target: T1, sodium-coupled neutral amino acid transporter 2 (SNAT2/SLC38A2) (Homo sapiens, UniProt Q96QD8); test: inhibition of SNAT2-dependent MeAIB uptake in cells (GC-MS); type: cell-based
T1 construct: dox-inducible sgRNA-resistant human SLC38A2 cDNA in Slc38a2-KO mouse HY15549 cells
T1 sequence (Q96QD8 1-506): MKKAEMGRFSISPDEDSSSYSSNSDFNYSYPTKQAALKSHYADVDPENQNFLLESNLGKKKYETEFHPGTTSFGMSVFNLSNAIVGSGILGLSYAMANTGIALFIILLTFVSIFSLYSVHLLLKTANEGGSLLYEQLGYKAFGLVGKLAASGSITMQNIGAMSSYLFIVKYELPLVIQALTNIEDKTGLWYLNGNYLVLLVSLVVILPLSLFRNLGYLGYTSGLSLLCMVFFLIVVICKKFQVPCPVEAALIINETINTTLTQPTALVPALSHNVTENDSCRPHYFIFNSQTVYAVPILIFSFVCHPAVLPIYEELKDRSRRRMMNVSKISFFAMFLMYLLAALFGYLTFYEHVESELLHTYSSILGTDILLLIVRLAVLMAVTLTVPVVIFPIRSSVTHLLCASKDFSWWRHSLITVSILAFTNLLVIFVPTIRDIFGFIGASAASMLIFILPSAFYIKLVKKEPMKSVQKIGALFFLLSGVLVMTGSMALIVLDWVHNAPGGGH

[2] = target: T1, sodium-coupled neutral amino acid transporter 2 (SNAT2/SLC38A2); test: GC-MS cell uptake assay, SNAT2-expressing vs SNAT2-KO cells (KM); type: cell-based
[3] = substrate: CNC(C)(C)C(=O)O; test: GC-MS cell uptake assay, SNAT1-overexpressing vs empty vector cells (KM); type: cell-based, Homo sapiens

C[C@H](N)C(=O)O [L-alanine]
IC50 [1]: 1.9 mM

CNC(C)(C)C(=O)O [MeAIB]
Km [2]: ~300 µM

B1: SNAT1 (Homo sapiens) (protein)
chain: MMHFKSGLELTELQNMTVPEDDNISNDSNDFTEVENGQINSKFISDRESRRSLTNSHLEKKKCDEYIPGTTSLGMSVFNLSNAIMGSGILGLAFALANTGILLFLVLLTSVTLLSIYSINLLLICSKETGCMVYEKLGEQVFGTTGKFVIFGATSLQNTGAMLSYLFIVKNELPSAIKFLMGKEETFSAWYVDGRVLVVIVTFGIILPLCLLKNLGYLGYTSGFSLSCMVFFLIVVIYKKFQIPCIVPELNSTISANSTNADTCTPKYVTFNSKTVYALPTIAFAFVCHPSVLPIYSELKDRSQKKMQMVSNISFFAMFVMYFLTAIFGYLTFYDNVQSDLLHKYQSKDDILILTVRLAVIVAVILTVPVLFFTVRSSLFELAKKTKFNLCRHTVVTCILLVVINLLVIFIPSMKDIFGVVGVTSANMLIFILPSSLYLKITDQDGDKGTQRIWAALFLGLGVLFSLVSIPLVIYDWACSSSSDEGH
notes: CMV-driven human SLC38A1 cDNA stably expressed in HY15549 iSNAT2 cells
Km [3]: 2900 µM
